Reference: PMC9727182, “Identification of pharmacokinetic markers for safflower injection using a combination of system pharmacology, multicomponent pharmacokinetics, and quantitative proteomics study” (Frontiers in Pharmacology, 2022)
“And” between values parts separate entries of the source, which are not always exact repeats. Equal values may be shown once.

Legend:
[1] = test system: H9c2 cardiomyocytes injured by H2O2; test: Protection of cardiomyocytes injured by H2O2 (MTT); format: cell-based
Procedure: H9c2 cardiomyocytes obtained from Cell Bank of the Chinese Academy of Sciences (Shanghai, China) were cultured in DMEM (high glucose) supplemented with 1% P/S and 15% FBS in 5% CO2 at 37°C. The cells were collected with 0.25% trypsin, followed by re-seeding in 96-well multiplates with a density of 5×10^3 cells per well. The cell experiments were grouped as follows: normal group, model group (H2O2), administration groups and positive control groups (N-Acetyl-L-cysteine, NAC). […] After that, cells were incubated with 0.5 mg/ml of MTT for 4 h under standard condition, followed by addition of 150 µl DMSO into every well. The cell supernatants were finally removed and the optical density (OD) was recorded at 570 nm using a microplate reader (Thermo Fisher Scientific, United States). The protection rate of the compounds on H9c2 cardiomyocytes was calculated as (OD valueadministration group (or NAC group)-OD valuemodel group)/(OD valuenormal group-OD valuemodel group) ×100%.

[2] = Multicomponent pharmacokinetics in rat plasma after i.v. safflower injection (SI); settings: for AUC(0-inf) / AUC(0-t) / Cmax / MRT inf / MRT last / Vd / clearance / half-life / concentration at 15 min: male, Sprague-Dawley, rat, plasma; for AUC(0-inf) / AUC(0-t) / Cmax / MRT inf / MRT last / Vd / clearance / half-life: iv; for detected mean maximum plasma concentration: rats, after administration of 4 ml/kg of SI; for concentration at 15 min: intravenous
Procedure: The animal experiments were approved by the Animal Care and Use Committee of the College of Animal Science (College of Bee Science), Fujian Agriculture and Forestry University (Approval Number: PZCASFAFU21012). 250 ± 20 g of male Sprague-Dawley (SD) rats were provided by Lab Animal Center in Fujian Medical University (Fuzhou, China).
Ten rats were divided into three groups (Low dose group, n = 4; medium and high groups, n = 3, respectively). […] For each rat, 2 ml of physiological saline was supplemented after 30 min sampling via intraperitoneal injection. The plasma samples were obtained by centrifugation at 3,000 rpm for 10 min and stored at −20°C until analysis.
Clear supernatant (5 μl) was injected into HPLC-MS for bioanalysis.
The sample was separated on a RD-C18 column (4.6 mm × 50 mm, 3.5 μm, Zhongpu Develop, China). The mobile phase incudes water with 0.1% acetic acid (A) and acetonitrile (B). […] The column temperature, flow rate and injection volume were set at 30°C, 0.5 ml/min and 5 μl, respectively.
Non-compartmental model was used to calculate the PK parameters by DAS 3.0 software (Chinese Pharmacologic Society, Beijing, China). A single-tailed t-test was carried out in the study.

[3] = Stability of 6 compounds of SI in rat plasma; settings: for 10h in auto-sampler vials RE: extracted rat plasma; for 6h at room temperature RE / Freeze-thaw stability (three cycles) RE / Long-term stability (-80℃,15 days) RE: rat plasma
Source text: The LC-MS method was validated by linearity, limits of detection (LOD), limits of quantification (LOQ), precision, accuracy, extraction recovery, matrix effect and stability of the 6 ingredients in rat plasma. Calibration curves were plotted using weighted linear regression of the peak area ratio of analyte to the IS against the corresponding nominal concentration of the analyte. LOD and LOQ were defined as the detectable concentration at which the ratio of signal to noise was more than 3 and 10, respectively. Intra- and inter-day accuracy and precision were assessed by detecting quality control (QC) samples using five replicates of rat samples at three concentration levels on one or three validation days, respectively. Accuracy and precision were expressed by relative error (RE) and relative standard deviation (RSD), respectively. The extraction recovery and matrix effect of the 6 components at above-mentioned three concentration levels were determined. Stability was assessed under the condition of placing un-treated plasma samples at room temperature for 6 h, and extracted plasma samples in auto-sampler for 10 h, as well as placing plasma samples within freeze-thaw three cycles and at −80 °C for 15 days.

[4] = Stability in diluted SI at room temperature; settings: analyzed at 0, 2, 4, 8, 12, 24, and 48 h
[5] = test system: H9c2 cardiomyocytes injured by H2O2; test: TMT quantitative proteomics of H2O2-injured cardiomyocytes; format: cell-based; settings: 195 μM
Procedure: The procedures for cell culture, group and administration are similar to those in “2.7. […] Briefly, the difference is that H9c2 cells were seeded and cultured in a culture flask with a bottom area of 25 cm^2 with a density 1×10^5 cells/ml. After treatment, about 3×10^7 cells per group were collected for the next quantitative proteomics investigation, which was done by Jingjie PTM Biolabs (Hangzhou, China). All the procedures for quantitative proteomics can be found in the section of “5. Quantitative proteomics” of the Supplementary Material.
The quantitative proteomics study was carried out according to our previous report ([Li et al., 2022]). Relative quantitative values of proteins in two samples were compared via t-test. […] The identified difference proteins between groups were subjected further to principal component analysis (PCA). […] The subcellular structure location was analyzed using these proteins as objectives.

[6] = 1 h after administration (2 ml/kg of SI), preliminary test
[7] = behind 15 min after i.v. low dose administration (1 ml/kg of SI)

CC(=O)N[C@@H](CS)C(=O)O [NAC, N-Acetyl-L-cysteine, reference compound]
protection rate ([1]; 1 mM, positive drug): 6.45%

C[C@@H]1O[C@@H](OC[C@H]2O[C@@H](Oc3c(-c4ccc(O)c(O)c4)oc4cc(O)cc(O)c4c3=O)[C@H](O)[C@@H](O)[C@@H]2O)[C@H](O)[C@H](O)[C@H]1O [RU, rutin]
detection in rat plasma [2, 6]: can be detected | detection in rat plasma [2, 7]: can’t be detected | AUC(0-inf) ([2]; 4 ml/kg): 15.1 ± 2.23 ng·h/mL | AUC(0-t) ([2]; 4 ml/kg): 12.4 ± 1.37 ng·h/mL | Cmax ([2]; 4 ml/kg): 39.3 ± 1.53 ng/mL | MRT inf ([2]; 4 ml/kg): 0.36 ± 0.06 h | MRT last ([2]; 4 ml/kg): 0.22 ± 0.03 h | Vd ([2]; 4 ml/kg): 0.3 ± 0.02 L/kg | clearance ([2]; 4 ml/kg): 14.3 mL/min/kg | half-life ([2]; 4 ml/kg): 0.24 ± 0.04 h | detected mean maximum plasma concentration [2]: 0.039 μg/mL and 0.06 μM | protection ([1]; 0.06 μM, preliminary test at maximum detected plasma concentration): absence of protection | 10h in auto-sampler vials RE ([3]; spiked 40 ng/mL): 6.25% | 10h in auto-sampler vials RE ([3]; spiked 1000 ng/mL): 2.90% | 10h in auto-sampler vials RE ([3]; spiked 10000 ng/mL): -5.96% | 6h at room temperature RE ([3]; spiked 40 ng/mL): -4.00% | Freeze-thaw stability (three cycles) RE ([3]; spiked 40 ng/mL): -4.50% | Long-term stability (-80℃,15 days) RE ([3]; spiked 40 ng/mL): 7.00% | 6h at room temperature RE ([3]; spiked 1000 ng/mL): -2.48% | Freeze-thaw stability (three cycles) RE ([3]; spiked 1000 ng/mL): -3.06% | Long-term stability (-80℃,15 days) RE ([3]; spiked 1000 ng/mL): 3.36% | 6h at room temperature RE ([3]; spiked 10000 ng/mL): -3.71% | Freeze-thaw stability (three cycles) RE ([3]; spiked 10000 ng/mL): 0.09% | Long-term stability (-80℃,15 days) RE ([3]; spiked 10000 ng/mL): -2.80% | Stability RSD [4]: 2.31%

O=C(O)[C@H]1O[C@@H](Oc2cc3oc(-c4ccc(O)cc4)cc(=O)c3c(O)c2O)[C@H](O)[C@@H](O)[C@@H]1O [SCU, scutellarin]
detection in rat plasma [2, 6]: can be detected | detection in rat plasma [2, 7]: can’t be detected | half-life [2]: ≥ 2.58 h | AUC(0-inf) ([2]; 2 ml/kg): 105 ± 31.5 ng·h/mL | AUC(0-t) ([2]; 2 ml/kg): 89.8 ± 21 ng·h/mL | Cmax ([2]; 2 ml/kg): 162 ± 17.4 ng/mL | MRT inf ([2]; 2 ml/kg): 2.9 ± 2.42 h | MRT last ([2]; 2 ml/kg): 1.46 ± 0.64 h | Vd ([2]; 2 ml/kg): 0.05 ± 0.02 L/kg | clearance ([2]; 2 ml/kg): 0.167 mL/min/kg | half-life ([2]; 2 ml/kg): 2.58 ± 1.84 h | AUC(0-inf) ([2]; 4 ml/kg): 358 ± 34 ng·h/mL | AUC(0-t) ([2]; 4 ml/kg): 306 ± 12.5 ng·h/mL | Cmax ([2]; 4 ml/kg): 327 ± 60 ng/mL | MRT inf ([2]; 4 ml/kg): 2.96 ± 1.49 h | MRT last ([2]; 4 ml/kg): 1.57 ± 0.68 h | Vd ([2]; 4 ml/kg): 0.03 ± 0.01 L/kg | clearance ([2]; 4 ml/kg): 0.167 mL/min/kg | half-life ([2]; 4 ml/kg): 2.84 ± 1.19 h | detected mean maximum plasma concentration [2]: 0.327 μg/mL and 0.7 μM | protection ([1]; 0.7 μM, preliminary test at maximum detected plasma concentration): absence of protection | 10h in auto-sampler vials RE ([3]; spiked 40 ng/mL): 10.63% | 10h in auto-sampler vials RE ([3]; spiked 1000 ng/mL): 0.30% | 10h in auto-sampler vials RE ([3]; spiked 10000 ng/mL): -1.48% | 6h at room temperature RE ([3]; spiked 40 ng/mL): -6.50% | Freeze-thaw stability (three cycles) RE ([3]; spiked 40 ng/mL): 0.00% | Long-term stability (-80℃,15 days) RE ([3]; spiked 40 ng/mL): 6.00% | 6h at room temperature RE ([3]; spiked 1000 ng/mL): -2.90% | Freeze-thaw stability (three cycles) RE ([3]; spiked 1000 ng/mL): -4.00% | Long-term stability (-80℃,15 days) RE ([3]; spiked 1000 ng/mL): 2.80% | 6h at room temperature RE ([3]; spiked 10000 ng/mL): -2.06% | Freeze-thaw stability (three cycles) RE ([3]; spiked 10000 ng/mL): -5.21% | Long-term stability (-80℃,15 days) RE ([3]; spiked 10000 ng/mL): -0.81% | Stability RSD [4]: 4.42%

Nc1ncnc2c1ncn2[C@@H]1O[C@H](CO)[C@@H](O)[C@H]1O [adenosine]
concentration at 15 min ([2]; 2 ml/kg): < 0.5 ng/mL | Stability RSD [4]: 2.74%

Nc1ccn([C@@H]2O[C@H](CO)[C@@H](O)[C@H]2O)c(=O)n1 [cytidine]
concentration at 15 min ([2]; 2 ml/kg): < 0.5 ng/mL | Stability RSD [4]: 1.85%

Nc1nc2c(ncn2[C@@H]2O[C@H](CO)[C@@H](O)[C@H]2O)c(=O)[nH]1 [guanosine]
concentration at 15 min ([2]; 2 ml/kg): < 0.5 ng/mL

O=c1c(O)c(-c2ccc(O)cc2)oc2cc(O)cc(O)c12 [kaempferol]
concentration at 15 min ([2]; 2 ml/kg): < 0.5 ng/mL

O=c1c(O)c(-c2ccc(O)c(O)c2)oc2cc(O)cc(O)c12 [quercetin]
concentration at 15 min ([2]; 2 ml/kg): < 0.5 ng/mL | Stability RSD [4]: 2.51%

O=C(O)/C=C/c1ccccc1 [trans-cinnamic acid]
Stability RSD [4]: 1.86%

O=c1ccn([C@@H]2O[C@H](CO)[C@@H](O)[C@H]2O)c(=O)[nH]1 [uridine]
concentration at 15 min ([2]; 2 ml/kg): < 0.5 ng/mL | Stability RSD [4]: 2.81%

hydroxysafflor yellow A [HSYA]
cell viability vs. model group ([1]; 10 μM, pretreated 24 h, 250 μM H2O2 2 h): higher cell viability than the model group | anti-H2O2 injury effect (protection rate) ([1]; 1, 5 and 10 μM): concentration-dependent | protection rate ([1]; […] μM, preliminary test at maximum detected plasma concentration): about 26% | proteins significantly downregulated vs. M group ([5]; fold change ≤1/1.5, p <0.05): 205 proteins | proteins significantly upregulated vs. M group ([5]; fold change ≥1.5, p <0.05): 148 proteins | KEGG pathway regulation ([5]; vs. M group): downregulated the ribosome pathway and upregulated the lysosome pathway | changed protein expression located at the cytoplasm ([5]; vs. M group): 41.64% | changed protein expression located at the nucleus ([5]; vs. M group): 27.48%
